Where “and” joins values, the source holds several entries; their conditions need not be identical. Equal entries are not always repeated.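 Five concentrations, 48 hours, 96-well plates. TGI: concentration producing complete growth inhibition.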
Key:
Test in all cases: DTP human tumour cell line panel, 48 h
[1] = system: SNB-75 CNS
[2] = system: UACC-257 melanoma
[3] = system: RPMI-8226 leukemia
[4] = system: NCI-H226 lung
[5] = system: SK-OV-3 ovarian
[6] = system: LOX IMVI melanoma
[7] = system: OVCAR-4 ovarian
[8] = system: HCT-15 colon
[9] = system: SK-MEL-2 melanoma

## CN(C)/C(=N/C(=O)Nc1ccccc1)SCc1ccccc1
[1]
  TGI: > 100 µM
[2]
  TGI: > 100 µM
[3]
  TGI: > 100 µM
[4]
  TGI: > 100 µM
[5]
  TGI: > 100 µM
[6]
  TGI: > 100 µM
[7]
  TGI: > 100 µM
[8]
  TGI: > 100 µM
[9]
  TGI: > 100 µM

## Nc1nc(Cl)cc(NCCCCCCCCCCNc2cc(Cl)nc(N)n2)n1
[1]
  TGI: 68.8 µM
[2]
  TGI: > 100 µM
[3]
  TGI: 91.4 µM
[4]
  TGI: 20.3 µM
[5]
  TGI: > 100 µM
[6]
  TGI: 24.2 µM
[7]
  TGI: > 100 µM
[8]
  TGI: > 100 µM
[9]
  TGI: > 100 µM

## S=C1OC2C3C4CC5C3C(O1)C1C5C4C21 (centres undefined)
[1]
  TGI: > 100 µM
[2]
  TGI: > 100 µM
[3]
  TGI: > 100 µM
[4]
  TGI: > 100 µM
[5]
  TGI: > 100 µM
[6]
  TGI: > 100 µM
[7]
  TGI: > 100 µM
[8]
  TGI: > 100 µM

## COS(=O)CCOC(=O)c1ccccc1SSc1ccccc1C(=O)OCCS(=O)OC (centres undefined)
[1]
  TGI: 70.2 µM
[2]
  TGI: 38.8 µM
[3]
  TGI: 57.7 µM
[5]
  TGI: > 100 µM
[6]
  TGI: 61.6 µM
[7]
  TGI: 34.9 µM
[8]
  TGI: 85.9 µM
[9]
  TGI: > 100 µM

## OCC1CC2CC1C1(C2)OCCO1 (centres undefined)
[1]
  TGI: > 100 µM
[2]
  TGI: > 100 µM
[3]
  TGI: > 100 µM
[4]
  TGI: > 100 µM
[5]
  TGI: > 100 µM
[6]
  TGI: > 100 µM
[7]
  TGI: > 100 µM
[9]
  TGI: > 100 µM

## O=C(O)c1oc2ccc([N+](=O)[O-])c3c2c1CCC3
[1]
  TGI: > 100 µM
[2]
  TGI: > 100 µM
[4]
  TGI: > 100 µM
[6]
  TGI: > 100 µM
[7]
  TGI: > 100 µM
[9]
  TGI: > 100 µM

## Cc1ccc(S(=O)(=O)ON=C2CC(c3ccccc3)N(C)C(c3ccccc3)C2)cc1 (centres undefined)
[1]
  TGI: 79.3 µM and 66.9 µM
[2]
  TGI: 52.2 µM and 58 µM
[3]
  TGI: 48.2 µM
[4]
  TGI: 70.1 µM and 64 µM
[5]
  TGI: 44.9 µM and 47.7 µM
[6]
  TGI: 27.5 µM and 26.9 µM
[7]
  TGI: 38.4 µM and 40.3 µM
[8]
  TGI: 34.7 µM and 44.9 µM
[9]
  TGI: 30 µM

## C[Si](C)(C)[C@@]1([Se]c2ccccc2)CC[C@@H]1C(=O)c1ccccc1
[1]
  TGI: > 100 µM
[2]
  TGI: > 100 µM
[3]
  TGI: 53 µM
[4]
  TGI: > 100 µM
[5]
  TGI: > 100 µM
[6]
  TGI: > 100 µM
[7]
  TGI: > 100 µM
[8]
  TGI: > 100 µM
[9]
  TGI: > 100 µM

## C(=C1/CCCCC([n+]2ccccc2)=N1)/c1ccccc1
[1]
  TGI: > 100 µM
[3]
  TGI: > 100 µM
[4]
  TGI: > 100 µM
[5]
  TGI: > 100 µM
[6]
  TGI: > 100 µM
[7]
  TGI: > 100 µM
[8]
  TGI: > 100 µM
[9]
  TGI: > 100 µM

## CC12CC(=O)NN=C1c1ccccc1C2 (centres undefined)
[1]
  TGI: > 100 µM
[2]
  TGI: > 100 µM
[3]
  TGI: > 100 µM
[4]
  TGI: > 100 µM
[5]
  TGI: > 100 µM
[6]
  TGI: > 100 µM
[8]
  TGI: > 100 µM
[9]
  TGI: > 100 µM

## O=C(O)C1C2CC3CC2CC31 (centres undefined)
[1]
  TGI: > 100 µM
[2]
  TGI: > 100 µM
[3]
  TGI: > 100 µM
[5]
  TGI: > 100 µM
[6]
  TGI: > 100 µM
[7]
  TGI: > 100 µM
[8]
  TGI: > 100 µM
[9]
  TGI: > 100 µM

## CCCC/C(C)=N/NC(N)=S
[1]
  TGI: > 100 µM
[2]
  TGI: > 100 µM
[3]
  TGI: > 100 µM
[4]
  TGI: > 100 µM
[5]
  TGI: > 100 µM
[6]
  TGI: > 100 µM
[8]
  TGI: > 100 µM
[9]
  TGI: > 100 µM

## O=[N+]([O-])C(=C(c1ccccc1)c1ccccc1)[N+](=O)[O-]
[1]
  TGI: 28.5 µM
[2]
  TGI: 25.8 µM
[3]
  TGI: 6.43 µM
[4]
  TGI: 61.5 µM
[6]
  TGI: 9.68 µM
[7]
  TGI: 28.6 µM
[8]
  TGI: 32.6 µM
[9]
  TGI: 6.83 µM

## COc1ccc(/C=C/CO)cc1OC
[1]
  TGI: > 100 µM
[2]
  TGI: > 100 µM
[3]
  TGI: > 100 µM
[4]
  TGI: > 100 µM
[5]
  TGI: > 100 µM
[8]
  TGI: > 100 µM
[9]
  TGI: > 100 µM

## COc1ccc(-c2nc(N)nc(-c3cc(C)ccc3O)c2Cl)cc1
[1]
  TGI: 63.9 µM
[2]
  TGI: > 100 µM
[3]
  TGI: > 100 µM
[4]
  TGI: > 100 µM
[5]
  TGI: 94.2 µM
[6]
  TGI: > 100 µM
[7]
  TGI: 53.3 µM
[8]
  TGI: > 100 µM

## COc1ccccc1OCC(COC(=O)Nc1ccc(C)cc1)OC(=O)Nc1ccc(C)cc1 (centres undefined)
[1]
  TGI: 69.1 µM
[2]
  TGI: 49.7 µM
[3]
  TGI: 38.8 µM
[4]
  TGI: 67.5 µM
[5]
  TGI: 47.8 µM
[6]
  TGI: 30.2 µM
[8]
  TGI: 29.9 µM
[9]
  TGI: 31.4 µM

## OCC(O)C(OC1OC(CO)C(O)C(O)C1O)c1nn(-c2ccc(F)cc2)c2nc3cc(Cl)c(Cl)cc3cc12 (centres undefined)
[1]
  TGI: > 100 µM
[2]
  TGI: > 100 µM
[3]
  TGI: > 100 µM
[5]
  TGI: > 100 µM
[6]
  TGI: > 100 µM
[7]
  TGI: > 100 µM
[8]
  TGI: > 100 µM

## CC(=O)Nc1[nH]c(=O)[nH]c(=O)c1N(C(C)=O)C(C)=O
[2]
  TGI: > 100 µM
[3]
  TGI: > 100 µM
[4]
  TGI: > 100 µM
[6]
  TGI: > 100 µM
[7]
  TGI: > 100 µM
[8]
  TGI: > 100 µM
[9]
  TGI: > 100 µM

## CC(C)S(=O)(=O)n1c(N)nc2ccc(/C(=N/O)c3ccccc3)cc21
[1]
  TGI: 47.7 µM
[2]
  TGI: > 100 µM
[3]
  TGI: 31.8 µM
[4]
  TGI: 23.4 µM
[5]
  TGI: 83 µM
[7]
  TGI: > 100 µM
[8]
  TGI: 79.3 µM
[9]
  TGI: 54.1 µM

## COc1ccc2c(c1)[n+]([O-])c(-c1ccc(Cl)c(Cl)c1)c(N)[n+]2[O-]
[1]
  TGI: > 100 µM
[2]
  TGI: 46.4 µM
[3]
  TGI: > 100 µM
[4]
  TGI: > 100 µM
[5]
  TGI: > 100 µM
[7]
  TGI: > 100 µM
[8]
  TGI: > 100 µM
[9]
  TGI: > 100 µM
